Measurements from PubChem BioAssay AID328 (DTP/NCI, 2004).
Several values for one entry are separate records, joined by “and”; a condition that tells them apart may be missing. Identical values can stand only once. Toxic doses and inconclusive results are not listed.

Test system: BDF1 mice, P388 leukemia ip, median survival T/C
Test: NCI In Vivo Anticancer Drug Screen. Data for tumor model P388 Leukemia (intraperitoneal) in B6D2F1 (BDF1) mice
Details: endpoint: median survival time, higher = longer survival
Procedure, shortened: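 Transplantable tumour in mice; compound vs vehicle dosing; survival scored; ratio of treated to control reported.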

[1] = dose: 10.0 mg/kg/injection, schedule: Q04DX003 (ip), vehicle: other
[2] = dose: 25.0 mg/kg/injection, schedule: Q01DX009 (ip), vehicle: saline with Tween-80
[3] = dose: 50.0 mg/kg/injection, schedule: Q01DX009 (ip), vehicle: saline with Tween-80
[4] = dose: 100.0 mg/kg/injection, schedule: Q01DX009 (ip), vehicle: saline with Tween-80
[5] = dose: 100.0 mg/kg/injection, schedule: Q04DX003 (ip), vehicle: saline with Tween-80
[6] = dose: 200.0 mg/kg/injection, schedule: Q01DX009 (ip), vehicle: saline with Tween-80

For `O=[N+]([O-])/C=C/c1ccccc1Cl`, the T/C (dose: 2.2 mg/kg/injection, schedule: Q01DX009 (ip), vehicle: other) was 110 % of control, the T/C (dose: 3.3 mg/kg/injection, schedule: Q01DX009 (ip), vehicle: other) was 119 % of control and the T/C (dose: 5.0 mg/kg/injection, schedule: Q01DX009 (ip), vehicle: other) was 122 % of control. The T/C (dose: 6.6 mg/kg/injection, schedule: Q04DX003 (ip), vehicle: other) was 109 % of control, the T/C (dose: 7.5 mg/kg/injection, schedule: Q01DX009 (ip), vehicle: other) was 115 % of control and the T/C [1] was 104 % of control. The T/C (dose: 37.5 mg/kg/injection, schedule: Q01DX009 (sc), vehicle: olive oil, sesame oil, peanut oil) was 100 % of control, the T/C (dose: 37.5 mg/kg/injection, schedule: Q04DX003 (sc), vehicle: olive oil, sesame oil, peanut oil) was 95 % of control and the T/C (dose: 75.0 mg/kg/injection, schedule: Q01DX009 (sc), vehicle: olive oil, sesame oil, peanut oil) was 109 % of control. The T/C (dose: 75.0 mg/kg/injection, schedule: Q04DX003 (sc), vehicle: olive oil, sesame oil, peanut oil) was 90 % of control, the T/C (dose: 150.0 mg/kg/injection, schedule: Q01DX009 (sc), vehicle: olive oil, sesame oil, peanut oil) was 100 % of control and the T/C (dose: 150.0 mg/kg/injection, schedule: Q04DX003 (sc), vehicle: olive oil, sesame oil, peanut oil) was 104 % of control.
In the case of `O=C(NCCCl)N(CCCl)C(=O)Oc1c(Cl)c(Cl)c(Cl)c(Cl)c1Cl`, the T/C (dose: 50.0 mg/kg/injection, schedule: Q01DX005 (ip), vehicle: Klucel (hydroxypropylcellulose) (HPC)) was 97 % of control, the T/C (dose: 100.0 mg/kg/injection, schedule: Q01DX005 (ip), vehicle: Klucel (hydroxypropylcellulose) (HPC)) was 105 % of control and the T/C (dose: 200.0 mg/kg/injection, schedule: Q01DX005 (ip), vehicle: Klucel (hydroxypropylcellulose) (HPC)) was 91 % of control.
`O=C1C=CCCCC1` was tested, and the T/C [2] was 109 % of control, the T/C (dose: 25.0 mg/kg/injection, schedule: Q04DX003 (ip), vehicle: saline with Tween-80) was 103 % of control and the T/C [3] was 109 % of control and 112 % of control. The T/C (dose: 50.0 mg/kg/injection, schedule: Q04DX003 (ip), vehicle: saline with Tween-80) was 88 % of control, the T/C [4] was 104 % of control and the T/C [5] was 100 % of control.
In the case of `CCCCCCCCCCCCCCC(F)C(=O)O` (stereo unspecified), the T/C (dose: 6.25 mg/kg/injection, schedule: Q01DX009 (ip), vehicle: Klucel (hydroxypropylcellulose) (HPC)) was 100 % of control, the T/C (dose: 12.5 mg/kg/injection, schedule: Q01DX009 (ip), vehicle: Klucel (hydroxypropylcellulose) (HPC)) was 91 % of control and the T/C (dose: 25.0 mg/kg/injection, schedule: Q01DX009 (ip), vehicle: Klucel (hydroxypropylcellulose) (HPC)) was 91 % of control and 95 % of control. The T/C (dose: 100.0 mg/kg/injection, schedule: Q04DX003 (ip), vehicle: Klucel (hydroxypropylcellulose) (HPC)) was 95 % of control.
In the case of `O=C(CN1CCCCC1)Nc1nc(-c2ccc(Cl)cc2)cs1`, the T/C (dose: 100.0 mg/kg/injection, schedule: Q01DX005 (ip), vehicle: saline with Tween-80) was 91 % of control.
With `CCN(CC)C(=S)S` the T/C (dose: 100.0 mg/kg/injection, schedule: Q01DX009 (ip), vehicle: saline sonified) was 104 % of control, the T/C (dose: 200.0 mg/kg/injection, schedule: Q01DX009 (ip), vehicle: saline sonified) was 100 % of control and the T/C (dose: 400.0 mg/kg/injection, schedule: Q01DX009 (ip), vehicle: saline sonified) was 118 % of control. For the same compound, the T/C (dose: 400.0 mg/kg/injection, schedule: Q01DX010 (ip), vehicle: water) was 100 % of control.
In the case of `CC(CN1c2ccccc2Sc2ccccc21)N(C)C` (stereo unspecified), the T/C (dose: 18.75 mg/kg/injection, schedule: Q01DX009 (ip), vehicle: saline) was 100 % of control, the T/C (dose: 37.5 mg/kg/injection, schedule: Q04DX003 (ip), vehicle: saline) was 121 % of control and the T/C (dose: 75.0 mg/kg/injection, schedule: Q04DX003 (ip), vehicle: saline) was 117 % of control. The T/C (dose: 150.0 mg/kg/injection, schedule: Q04DX003 (ip), vehicle: saline) was 95 % of control.
In the case of `CCCCCCCOc1ccc(OCCCC[N+]2(CC)CCCCC2)cc1`, the T/C (dose: 6.25 mg/kg/injection, schedule: Q01DX009 (ip), vehicle: saline) was 100 % of control.
For `Oc1ccccc1-c1nnc2n1N=C(c1ccc(-c3ccccc3)cc1)CS2`, the T/C [3] was 98 % of control, the T/C [4] was 98 % of control and the T/C [6] was 92 % of control.
`O=[N+]([O-])c1ccc(SC2=NCCN2)c(Cl)c1` was tested, and the T/C [3] was 94 % of control, the T/C [4] was 103 % of control and the T/C [6] was 112 % of control.
In the case of `COc1cc([C@@H]2c3cc4c(c(OC)c3C[C@H]3COC(=O)[C@@H]32)OCO4)cc(OC)c1OC`, the T/C (dose: 12.5 mg/kg/injection, schedule: Q01DX001 (ip), vehicle: other) was 105 % of control, the T/C (dose: 12.5 mg/kg/injection, schedule: Q01DX010 (ip), vehicle: saline) was 172 % of control and the T/C (dose: 25.0 mg/kg/injection, schedule: Q01DX001 (ip), vehicle: saline) was 100 % of control. The T/C (dose: 25.0 mg/kg/injection, schedule: Q01DX010 (ip), vehicle: saline) was 104 % of control, the T/C (dose: 50.0 mg/kg/injection, schedule: Q01DX001 (ip), vehicle: saline) was 113 % of control and the T/C (dose: 50.0 mg/kg/injection, schedule: Q01DX010 (ip), vehicle: other) was 90 % of control. The T/C (dose: 100.0 mg/kg/injection, schedule: Q01DX001 (ip), vehicle: saline) was 113 % of control and the T/C (dose: 200.0 mg/kg/injection, schedule: Q01DX001 (ip), vehicle: saline) was 118 % of control.
`CN(C)P1(=O)OCCN1N` (stereo unspecified) was tested, and the T/C (dose: 50.0 mg/kg/injection, schedule: Q04DX003 (ip), vehicle: saline) was 109 % of control, the T/C (dose: 100.0 mg/kg/injection, schedule: Q04DX003 (ip), vehicle: saline) was 109 % of control and the T/C (dose: 200.0 mg/kg/injection, schedule: Q04DX003 (ip), vehicle: saline) was 104 % of control.
In the case of `C[NH-].C[NH-].O=C(O)C(=O)O.[Pt+2]`, the T/C (dose: 2.0 mg/kg/injection, schedule: Q04DX003 (ip), vehicle: other) was 158 % of control, the T/C (dose: 3.0 mg/kg/injection, schedule: Q04DX003 (ip), vehicle: other) was 200 % of control and the T/C (dose: 4.4 mg/kg/injection, schedule: Q04DX003 (ip), vehicle: other) was 154 % of control. The T/C (dose: 4.5 mg/kg/injection, schedule: Q04DX003 (ip), vehicle: other) was 166 % of control, the T/C (dose: 6.7 mg/kg/injection, schedule: Q04DX003 (ip), vehicle: other) was 186 % of control and the T/C [1] was 190 % of control. For the same compound, the T/C (dose: 10.5 mg/kg/injection, schedule: Q04DX003 (ip), vehicle: other) was 170 % of control, the T/C (dose: 12.5 mg/kg/injection, schedule: Q04DX003 (ip), vehicle: other) was 208 % of control and the T/C (dose: 16.0 mg/kg/injection, schedule: Q04DX003 (ip), vehicle: other) was 208 % of control. For the same compound, the T/C (dose: 25.0 mg/kg/injection, schedule: Q04DX003 (ip), vehicle: other) was 250 % of control and 254 % of control and 183 % of control and the T/C (dose: 100.0 mg/kg/injection, schedule: Q04DX003 (ip), vehicle: other) was 90 % of control.
For `c1cc[c]([Sn]([S][Sn]([c]2ccccc2)([c]2ccccc2)[c]2ccccc2)([c]2ccccc2)[c]2ccccc2)cc1`, the T/C [3] was 98 % of control, the T/C [4] was 93 % of control and the T/C [6] was 114 % of control. The T/C (dose: 400.0 mg/kg/injection, schedule: Q01DX009 (ip), vehicle: saline with Tween-80) was 86 % of control.
In the case of `C[n+]1c2ccccc2cc2ccccc21`, the T/C [2] was 118 % of control.
`OC(CC(O)(C(F)(F)F)C(F)(F)F)c1ccccc1` (stereo unspecified) was tested, and the T/C [5] was 100 % of control, the T/C (dose: 200.0 mg/kg/injection, schedule: Q04DX003 (ip), vehicle: saline with Tween-80) was 118 % of control and the T/C (dose: 400.0 mg/kg/injection, schedule: Q04DX003 (ip), vehicle: saline with Tween-80) was 113 % of control.
For `CC1(C)COC(C)(C(=O)NN)OC1`, the T/C (dose: 100.0 mg/kg/injection, schedule: Q04DX002 (ip), vehicle: saline) was 104 % of control, the T/C (dose: 200.0 mg/kg/injection, schedule: Q04DX002 (ip), vehicle: saline) was 101 % of control and the T/C (dose: 400.0 mg/kg/injection, schedule: Q04DX002 (ip), vehicle: saline) was 92 % of control.
`CCOC(=O)C(=O)NCc1cnccn1` was tested, and the T/C (dose: 100.0 mg/kg/injection, schedule: Q04DX003 (ip), vehicle: water) was 104 % of control, the T/C (dose: 200.0 mg/kg/injection, schedule: Q04DX003 (ip), vehicle: water) was 104 % of control and the T/C (dose: 400.0 mg/kg/injection, schedule: Q04DX003 (ip), vehicle: water) was 100 % of control.
`C=C1C(=O)OC2CC3(C)CC(O)C(OC(C)=O)C(=C)C3CC12` (stereo unspecified) was tested, and the T/C (dose: 25.0 mg/kg/injection, schedule: Q01DX009 (ip), vehicle: saline) was 104 % of control and the T/C (dose: 50.0 mg/kg/injection, schedule: Q01DX009 (ip), vehicle: saline) was 101 % of control.
In the case of `COc1cc(Cl)c(CC(=O)c2c[nH]c3ccccc23)cc1OC`, the T/C [3] was 103 % of control and the T/C [6] was 99 % of control.
